The supplement of paper PMC10307832

What was measured:
Test in all cases: relative viability (nuclei count vs DMSO), 5 days (fraction); higher = more cells survive
[1] = compound: CCN1C(=O)C2=CC(=C(N=C2N(C1=O)C3CC3)N)C(=O)N + CC(=O)Nc1cccc(-n2c(=O)n(C3CC3)c(=O)c3c(Nc4ccc(I)cc4F)n(C)c(=O)c(C)c32)c1 [Trametinib] (partner 0.02 µM)
Summary of the method: (§1)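 Relative viability was taken as the ratio of nuclei in treated wells to nuclei in vehicle wells. Lung cancer cell lines in 1536-well plates received compounds by pin tool one day after seeding, either one drug alone or a fixed anchor-drug dose plus five library-drug doses (not always all listed) in √10 steps. Nuclei were counted on 4× images after 5 days of treatment, and values are medians of duplicate plates.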

[2] = compound: CCN1C(=O)C2=CC(=C(N=C2N(C1=O)C3CC3)N)C(=O)N + CC(=O)c1c(C)c2cnc(Nc3ccc(N4CCNCC4)cn3)nc2n(C2CCCC2)c1=O [Palbociclib] (partner 0.5 µM)
Summary of the method: as §1

[3] = compound: CCN1C(=O)C2=CC(=C(N=C2N(C1=O)C3CC3)N)C(=O)N + CCNC(=O)c1noc(-c2cc(C(C)C)c(O)cc2O)c1-c1ccc(CN2CCOCC2)cc1 [Luminespib] (partner 0.01 µM)
Summary of the method: as §1

[4] = compound: CCN1C(=O)C2=CC(=C(N=C2N(C1=O)C3CC3)N)C(=O)N + CS(=O)(=O)CCNCc1ccc(-c2ccc3ncnc(Nc4ccc(OCc5cccc(F)c5)c(Cl)c4)c3c2)o1 [Lapatinib] (partner 2 µM)
Summary of the method: as §1

[5] = compound: CCN1C(=O)C2=CC(=C(N=C2N(C1=O)C3CC3)N)C(=O)N + CS(=O)(=O)N1CCN(Cc2cc3nc(-c4cccc5[nH]ncc45)nc(N4CCOCC4)c3s2)CC1 [Pictilisib] (partner 1 µM)
Summary of the method: as §1

| Cell Line | relative viability ([1]; first compound 0.253 µM) | relative viability ([1]; first compound 0.8 µM) | relative viability ([1]; first compound 2.53 µM) | relative viability ([1]; first compound 8 µM) | relative viability ([2]; first compound 0.253 µM) | relative viability ([2]; first compound 0.8 µM) | relative viability ([2]; first compound 2.53 µM) | relative viability ([2]; first compound 8 µM) | relative viability ([3]; first compound 0.8 µM) | relative viability ([3]; first compound 2.53 µM) | relative viability ([3]; first compound 8 µM) | relative viability ([4]; first compound 0.253 µM) | relative viability ([4]; first compound 0.8 µM) | relative viability ([4]; first compound 8 µM) | relative viability ([5]; first compound 0.253 µM) | relative viability ([5]; first compound 0.8 µM) | relative viability ([5]; first compound 8 µM) | relative viability ([3]; first compound 0.253 µM) | relative viability ([4]; first compound 2.53 µM) | relative viability ([5]; first compound 2.53 µM) |
| --- | --- | --- | --- | --- | --- | --- | --- | --- | --- | --- | --- | --- | --- | --- | --- | --- | --- | --- | --- | --- |
| NCI-H1793 | 0.428 | 0.387 | 0.433 | 0.445 | 0.258 | 0.322 | 0.27 | 0.3 | 0.183 | 0.177 | 0.15 | 0.635 | 0.819 | 0.636 | 0.267 | 0.308 | 0.303 |  |  |  |
| NCI-H1915 | 0.297 | 0.294 | 0.305 | 0.337 | 0.531 | 0.508 | 0.493 | 0.526 | 0.775 | 0.873 | 0.892 | 0.952 | 0.942 | 0.922 | 0.953 | 0.843 | 0.904 | 0.852 | 0.974 | 0.953 |
| NCI-H1944 | 0.451 | 0.445 | 0.353 | 0.427 | 0.421 | 0.324 | 0.33 | 0.365 | 0.711 | 0.618 | 0.723 | 0.873 | 0.679 | 0.756 | 0.354 | 0.354 | 0.308 | 0.795 | 0.818 | 0.342 |
| NCI-H1975 | 0.343 | 0.335 | 0.335 | 0.336 | 0.564 | 0.623 | 0.602 | 0.489 | 0.283 | 0.222 | 0.276 | 0.841 | 0.844 | 0.91 | 0.276 | 0.293 | 0.306 | 0.167 | 0.868 | 0.306 |
| NCI-H1993 | 0.587 | 0.576 | 0.511 | 0.491 | 0.414 | 0.561 | 0.651 | 0.676 | 0.877 | 0.612 | 0.832 | 0.782 | 0.817 | 0.823 | 0.706 | 0.832 | 0.758 | 1.78 | 0.815 | 0.786 |
| NCI-H2009 | 0.274 | 0.271 | 0.262 | 0.281 | 0.208 | 0.184 | 0.21 | 0.186 | 1.08 | 0.943 | 0.916 | 0.93 | 1.23 | 0.847 | 0.874 | 0.803 | 0.771 | 1.02 | 0.892 | 0.8 |
| NCI-H2023 | 0.587 | 0.61 | 0.503 | 0.589 | 0.438 | 0.39 | 0.313 | 0.382 | 0.726 | 0.781 | 0.792 | 0.51 | 0.813 | 0.776 | 0.229 | 0.218 | 0.26 | 0.857 | 0.777 | 0.23 |
| NCI-H2085 | 0.588 | 0.538 | 0.52 | 0.428 | 0.479 | 0.446 | 0.441 | 0.445 | 0.408 | 0.355 | 0.493 | 0.721 | 0.782 | 0.68 | 0.418 | 0.397 | 0.42 | 0.378 | 0.743 | 0.444 |
| NCI-H2087 | 0.228 | 0.184 | 0.217 | 0.193 | 0.216 | 0.238 | 0.275 | 0.236 | 0.193 | 0.132 | 0.189 | 0.811 | 1.14 | 0.872 | 0.785 | 0.788 | 0.857 | 0.229 | 1.21 | 0.878 |
| NCI-H2126 | 0.574 | 0.583 | 0.56 | 0.554 | 0.332 | 0.345 | 0.349 | 0.364 | 0.911 | 0.993 | 0.779 | 0.787 | 0.778 | 0.749 | 0.509 | 0.511 | 0.474 | 0.877 | 0.761 | 0.507 |
| NCI-H2170 | 0.866 | 0.817 | 0.891 | 1.01 | 0.385 | 0.389 | 0.395 | 0.363 | 0.879 | 0.716 | 0.746 | 0.253 | 0.257 | 0.255 | 0.297 | 0.326 | 0.335 | 0.686 | 0.263 | 0.295 |
| NCI-H2228 | 0.37 | 0.597 | 0.359 | 0.594 | 0.73 | 0.683 | 0.866 | 0.811 | 0.167 | 0.203 | 0.11 | 0.893 | 1.1 | 1.26 | 0.393 | 0.368 | 0.4 | 0.132 | 1.26 | 0.353 |
| NCI-H2347 | 0.183 | 0.299 | 0.307 | 0.307 | 0.458 | 0.489 | 0.445 | 0.492 | 0.469 | 0.774 | 0.341 | 0.94 | 1.01 | 0.937 | 0.475 | 0.711 | 0.782 | 1.03 | 0.985 | 0.566 |
| NCI-H2405 | 0.689 |  | 0.661 | 0.602 | 0.523 |  | 0.554 | 0.527 | 0.844 | 0.755 | 0.652 | 1.21 | 1.16 | 1.01 | 0.456 | 0.464 | 0.479 | 0.668 | 1.08 | 0.424 |
| NCI-H3122 | 0.224 | 0.21 | 0.266 | 0.224 | 0.183 | 0.182 | 0.152 | 0.209 | 0.0714 | 0.0957 | 0.0756 | 1 | 1.05 | 1.03 | 0.51 | 0.695 | 0.658 | 0.0925 | 0.951 | 0.554 |
| PC-3 [JPC-3] | 0.686 |  | 0.686 | 0.736 | 0.545 |  | 0.559 | 0.52 | 0.709 | 0.663 | 0.823 | 0.486 | 0.416 | 0.476 | 0.729 | 0.696 | 0.737 | 0.661 | 0.481 | 0.69 |
